From patent US20250388597A1, “BIFUNCTIONAL PHOTOCROSSLINKING PROBES FOR COVALENT CAPTURE OF PROTEIN-NUCLEIC ACID COMPLEXES IN CELLS” (UNIVERSITY OF SOUTHERN CALIFORNIA, priority 2022, published 2025)
“Also recorded” adds a separate entry of the source.

Molecular target: T1, NFAT1/DNA complex (Homo sapiens, UniProt Q13469)
T1 construct: human NFAT1 protein (residue 399-676, NFAT1-DBD)
T1 sequence (Q13469 399-676): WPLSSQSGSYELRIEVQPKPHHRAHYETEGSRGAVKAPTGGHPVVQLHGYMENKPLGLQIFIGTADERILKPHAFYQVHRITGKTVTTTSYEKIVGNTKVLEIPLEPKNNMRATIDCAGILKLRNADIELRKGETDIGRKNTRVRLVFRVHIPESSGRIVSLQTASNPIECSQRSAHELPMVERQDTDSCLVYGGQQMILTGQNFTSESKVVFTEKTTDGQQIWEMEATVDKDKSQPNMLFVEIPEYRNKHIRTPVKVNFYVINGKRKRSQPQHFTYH
Experiment: Identification of covalent attachment site on crosslinked NFAT1 (trypsin digestion, Edman sequencing)
Settings: for peptide identified by Edman sequencing of the DNA-peptide conjugate: trypsin digested crosslinked NFAT1/DNA complex
Procedure: FIG. 9A-FIG. 9D depicts characterization of BFPX-mediated crosslinking reaction, to identify the covalent attachment site on the protein. (FIG. 9A) A large scale of crosslinking reaction corresponding to lane 11 of FIG. 7 was carried out. The reaction mixture was separated on FPLC using a mono-Q column (yellow trace: conductance, red trace: salt gradient (A:10 mM Hepes pH 7.4; B: 10 mM Hepes 7.4, IM NaCl), blue trace: UV254 nm absorbance). […] The flow-through contains only free NFAT (lane 4), peak I contains predominantly the complex (lane 5) and peak II contains predominantly free DNA (lane 6). (FIG. 9C) The purified NFAT/DNA complex was digested with trypsin and the DNA-peptide conjugate was purified and sequenced by Edman degradation: Top panel, a schematic picture of the DNA binding domain of human NFAT1 (residue 399-676) used in the study, the sequence of loop 478-491, RITGKTVTTTSYEK (SEQ ID NO.: 1), is shown above; Middle panel: a schematic picture of the covalently capture NFAT/DNA complex, the DNA sequence (5′-[…]-3′ (SEQ ID NO: 2) and its complementary strand 3′-[…]-5′ (SEQ ID NO: 3)) used in the study is shown with the two potential probe (yellow wedge and start) binding site (TpA) indicated). The underlined region is the NFAT binding motif. Bottom panel: Edman sequencing results ([…], T480, and G481) identify the loop of 478-491, RITGKTVTTTSYEK (SEQ ID NO: 1), as the attachment site. […]
FIG. 13A depicts characterization of the BFPX-mediated crosslinking reaction: Identification of covalent attachment sites on the crosslinked proteins. […] The reaction mixtures were separated on FPLC using a mono-Q column (yellow trace: conductance, red trace: salt gradient (buffer A:10 mM Hepes pH 7.4; buffer B: 10 mM Hepes 7.4, 1 M NaCl), blue trace: UV254 nm absorbance). […]
We analyzed the covalent attachment sites on the NFAT/DNA complexes crosslinked by SPB-AAD and SPB-PEG4-AAD using a work flow shown in FIG. 13A. […] The sequencing results were generally noisy with multiple amino acids detected in each cycle. […]

SMILES | peptide identified by Edman sequencing of the DNA-peptide conjugate | covalent attachment site on NFAT1 (human NFAT1 DBD residue 399-676)
C#CCCC1(CCNC(=O)CCCOc2c3occc3cc3ccc(=O)oc23)N=N1 [SPB-AAD, N-(2-(3-(but-3-yn-1-yl)-3H-diazirin-3-yl)ethyl)-4-((7-oxo-7H-furo[3,2-g]chromen-9-yl)oxy)butanamide] | IVGN and Ile, Thr, and Gly | 
C#CCCC1(CCNC(=O)CCOCCOCCOCCOCCNC(=O)CCCOc2c3occc3cc3ccc(=O)oc23)N=N1 [SPB-PEG4-AAD, N-(2-(3-(but-3-yn-1-yl)-3H-diazirin-3-yl)ethyl)-1-(4-((7-oxo-7H-furo[3,2-g]chromen-9-yl)oxy)butanamido)-3,6,9,12-tetraoxapentadecan-15-amide] | APTGGH | residues 434 and 452; also recorded: loop of 434-452
